PubChem BioAssay AID330 (DTP/NCI, 2004)
Values joined by “and” are separate entries in the source; they are usually repeats but may differ in a detail not shown here. Identical values can stand only once. Inconclusive results and toxic doses are left out. How the source made its calls: active means survival T/C of 150% or more; inactive means T/C below 125% in these data.

System: P388 leukemia ip, CD2F1 mice, survival T/C
Experiment: NCI In Vivo Anticancer Drug Screen. Data for tumor model P388 Leukemia (intraperitoneal) in CD2F1 (CDF1) mice
Settings: endpoint: median survival time, higher = longer survival
Summary of the method: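 Mice carrying the transplanted tumor received test compound or vehicle. Survival was recorded in each group, and the value is the treated-group measurement divided by that of the vehicle-treated control group.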

[1] = dose: 12.5 mg/kg/injection, schedule: Q01DX005 (ip), vehicle: Klucel (hydroxypropylcellulose) (HPC)
[2] = dose: 25.0 mg/kg/injection, schedule: Q01DX005 (ip), vehicle: Klucel (hydroxypropylcellulose) (HPC)
[3] = dose: 50.0 mg/kg/injection, schedule: Q01DX005 (ip), vehicle: Klucel (hydroxypropylcellulose) (HPC)
[4] = dose: 100.0 mg/kg/injection, schedule: Q01DX005 (ip), vehicle: Klucel (hydroxypropylcellulose) (HPC)
[5] = dose: 200.0 mg/kg/injection, schedule: Q01DX005 (ip), vehicle: Klucel (hydroxypropylcellulose) (HPC)
[6] = dose: 50.0 mg/kg/injection, schedule: Q01DX005 (ip), vehicle: saline with Tween-80
[7] = dose: 12.5 mg/kg/injection, schedule: Q01DX009 (ip), vehicle: saline with Tween-80
[8] = dose: 25.0 mg/kg/injection, schedule: Q01DX009 (ip), vehicle: saline with Tween-80
[9] = dose: 50.0 mg/kg/injection, schedule: Q01DX009 (ip), vehicle: saline with Tween-80
[10] = dose: 100.0 mg/kg/injection, schedule: Q01DX005 (ip), vehicle: saline with Tween-80
[11] = dose: 100.0 mg/kg/injection, schedule: Q01DX009 (ip), vehicle: saline with Tween-80
[12] = dose: 200.0 mg/kg/injection, schedule: Q01DX009 (ip), vehicle: saline with Tween-80
[13] = dose: 100.0 mg/kg/injection, schedule: Q01DX009 (ip), vehicle: Klucel (hydroxypropylcellulose) (HPC)
[14] = dose: 200.0 mg/kg/injection, schedule: Q01DX009 (ip), vehicle: Klucel (hydroxypropylcellulose) (HPC)
[15] = dose: 400.0 mg/kg/injection, schedule: Q01DX009 (ip), vehicle: Klucel (hydroxypropylcellulose) (HPC)
[16] = dose: 50.0 mg/kg/injection, schedule: Q01DX009 (ip), vehicle: Klucel (hydroxypropylcellulose) (HPC)

Measured: T/C

CC1=C(N2CCOCC2)C(N2CCOCC2)=C(C)C(=O)C1=O
inactive: [1] 108 % of control | [2] 101 % of control | [3] 108 % of control | [4] 97 % of control | [5] 96 % of control

CCc1nc(N)nc(N)c1-c1ccc(N)cc1
inactive: dose: 12.5 mg/kg/injection, schedule: Q01DX005 (ip), vehicle: saline with Tween-80 104 % of control | dose: 25.0 mg/kg/injection, schedule: Q01DX005 (ip), vehicle: saline with Tween-80 100 % of control | [6] 98 % of control and 99 % of control

O=C(Nc1cccc(Cl)c1)OCC#CCCl
inactive: dose: 50.0 mg/kg/injection, schedule: Q01DX005 (ip), vehicle: saline + Tween-80 + alcohol 100 % of control | dose: 100.0 mg/kg/injection, schedule: Q01DX005 (ip), vehicle: saline + Tween-80 + alcohol 107 % of control | dose: 200.0 mg/kg/injection, schedule: Q01DX005 (ip), vehicle: saline + Tween-80 + alcohol 108 % of control

COc1ccc(C2=NC(c3ccccc3)NC(c3ccccc3)/C2=C/c2ccccc2)cc1 (stereo unspecified)
inactive: dose: 6.25 mg/kg/injection, schedule: Q01DX009 (ip), vehicle: saline with Tween-80 100 % of control | [7] 100 % of control | [8] 105 % of control | [9] 100 % of control

c1cnc2c(c1)Oc1nc3ccccc3nc1S2
inactive: [6] 99 % of control | [10] 98 % of control | dose: 200.0 mg/kg/injection, schedule: Q01DX005 (ip), vehicle: saline with Tween-80 96 % of control

O=C(O/N=C1\C2CCC(C2)C1Cl)c1ccc([N+](=O)[O-])cc1 (stereo unspecified)
inactive: [7] 118 % of control | [8] 122 % of control | [9] 104 % of control

COC(=O)c1ccc(OC)c(OC)c1-c1c(C(=O)OC)c(C(=O)OC)c2n1CCc1cc3c(cc1-2)OCO3
inactive: dose: 50.0 mg/kg/injection, schedule: Q04DX002 (ip), vehicle: saline with Tween-80 103 % of control | dose: 100.0 mg/kg/injection, schedule: Q04DX002 (ip), vehicle: saline with Tween-80 100 % of control | dose: 200.0 mg/kg/injection, schedule: Q04DX002 (ip), vehicle: saline with Tween-80 90 % of control

O=C1c2cc(Cl)ccc2NC(O)c2cccn21 (stereo unspecified)
inactive: dose: 0.1 mg/kg/injection, schedule: Q01DX005 (ip), vehicle: water 93 % of control | dose: 0.2 mg/kg/injection, schedule: Q01DX005 (ip), vehicle: water 89 % of control | dose: 0.4 mg/kg/injection, schedule: Q01DX005 (ip), vehicle: water 90 % of control | dose: 0.8 mg/kg/injection, schedule: Q01DX005 (ip), vehicle: water 98 % of control | dose: 1.6 mg/kg/injection, schedule: Q01DX005 (ip), vehicle: water 98 % of control | dose: 5.0 mg/kg/injection, schedule: Q01DX005 (ip), vehicle: distilled water + Tween-80 95 % of control | dose: 10.0 mg/kg/injection, schedule: Q01DX005 (ip), vehicle: distilled water + Tween-80 101 % of control | dose: 20.0 mg/kg/injection, schedule: Q01DX005 (ip), vehicle: distilled water + Tween-80 95 % of control | dose: 40.0 mg/kg/injection, schedule: Q01DX005 (ip), vehicle: distilled water + Tween-80 92 % of control | dose: 80.0 mg/kg/injection, schedule: Q01DX005 (ip), vehicle: distilled water + Tween-80 93 % of control

O=C(Nc1ccc(Cl)cc1)Nc1nnc(Cc2ccc(Cl)cc2)o1
inactive: [6] 99 % of control | [10] 87 % of control

Cc1ccc2[nH]cc(C3CCCN4CCCCC34)c2c1 (stereo unspecified)
inactive: dose: 12.5 mg/kg/injection, schedule: Q01DX001 (ip), vehicle: saline with Tween-80 99 % of control | dose: 25.0 mg/kg/injection, schedule: Q01DX001 (ip), vehicle: saline with Tween-80 100 % of control | dose: 50.0 mg/kg/injection, schedule: Q01DX001 (ip), vehicle: saline with Tween-80 98 % of control | dose: 90.0 mg/kg/injection, schedule: Q01DX001 (ip), vehicle: saline with Tween-80 92 % of control

O=c1c2ccccc2sc2c([N+](=O)[O-])ccc(NCC3CCCN4CCCCC34)c12 (stereo unspecified)
inactive: dose: 38.5 mg/kg/injection, schedule: Q01DX005 (ip), vehicle: saline with Tween-80 96 % of control | dose: 77.0 mg/kg/injection, schedule: Q01DX005 (ip), vehicle: saline with Tween-80 96 % of control | dose: 154.0 mg/kg/injection, schedule: Q01DX005 (ip), vehicle: saline with Tween-80 118 % of control

CC1CC(=O)Nc2nc(N)ncc21 (stereo unspecified)
inactive: dose: 60.0 mg/kg/injection, schedule: Q01DX005 (ip), vehicle: saline with Tween-80 102 % of control | dose: 120.0 mg/kg/injection, schedule: Q01DX005 (ip), vehicle: saline with Tween-80 106 % of control | dose: 240.0 mg/kg/injection, schedule: Q01DX005 (ip), vehicle: saline with Tween-80 108 % of control

CC(C)(O)Cc1ccc(Cl)cc1
inactive: [8] 99 % of control | [9] 105 % of control | [11] 108 % of control | [12] 105 % of control

CCCn1cnc(C(=O)OC)c1O (tested in a mixture with another compound)
inactive: dose: 100.0 mg/kg/injection, schedule: Q04DX002 (ip), vehicle: water 101 % of control | dose: 200.0 mg/kg/injection, schedule: Q04DX002 (ip), vehicle: water 104 % of control | dose: 400.0 mg/kg/injection, schedule: Q04DX002 (ip), vehicle: water 101 % of control

CC(=O)[C@H]1CC[C@H]2[C@@H]3C[C@H](F)C4=CC(=O)CC[C@]4(C)[C@H]3C(=O)C[C@]12C
inactive: [11] 100 % of control | [12] 100 % of control | dose: 400.0 mg/kg/injection, schedule: Q01DX009 (ip), vehicle: saline with Tween-80 100 % of control

S=C1SCN(C2CCCCC2)CN1C1CCCCC1
inactive: [13] 100 % of control | [14] 105 % of control | [15] 107 % of control

CC(C)(C)NC(=S)N/N=C/c1cc(Cl)cc(Cl)c1O
inactive: [9] 97 % of control | [12] 98 % of control

CC(C)(C)C(=O)Nc1ccc(S(=O)(=O)Nc2ccc(N)cc2O)cc1
inactive: [16] 112 % of control | [13] 97 % of control | [14] 115 % of control

O=C1CC2(CCCC2)C(=O)N1c1cccc2ccccc12
inactive: [16] 94 % of control | [13] 106 % of control | [14] 111 % of control

N#Cc1ccc(CC(O)(c2ccccc2)c2ccccc2)cc1
inactive: dose: 50.0 mg/kg/injection, schedule: Q01DX009 (ip), vehicle: saline 99 % of control | dose: 100.0 mg/kg/injection, schedule: Q01DX009 (ip), vehicle: saline 101 % of control | dose: 200.0 mg/kg/injection, schedule: Q01DX009 (ip), vehicle: saline 95 % of control | dose: 400.0 mg/kg/injection, schedule: Q01DX009 (ip), vehicle: saline 87 % of control

Cn1ccc2cc(C3CCCc4c3[nH]c3ccccc43)c(OCc3ccccc3)cc21 (stereo unspecified)
inactive: dose: 6.25 mg/kg/injection, schedule: Q01DX005 (ip), vehicle: Klucel (hydroxypropylcellulose) (HPC) 99 % of control | [1] 97 % of control | [2] 97 % of control

CCCCN(CCCC)CCCNC(c1ccc(N(C)C)cc1)c1ccc(N(C)C)cc1
inactive: [2] 98 % of control | [3] 104 % of control | [4] 98 % of control | [5] 102 % of control

ICC1(CI)COC1
inactive: [13] 105 % of control | [14] 104 % of control | [15] 99 % of control
